Measurements as given in patent US20200407717A1, “METHODS OF MODULATING ANTISENSE ACTIVITY” (Ionis Pharmaceuticals, Inc., priority 2018, published 2020).
e = 2'-O-(2-methoxyethyl) (MOE); d = 2'-deoxy (DNA)

System: Drosha mRNA
Assay: Antisense activity by RT-qPCR, Drosha, A431 cells
Type: cell-based, Human
Procedure: A431 cells were grown at 10,000 cells per well and pre-treated with a variety of growth factors to determine if the addition of exogenous growth factors affects antisense activity or uptake of modified antisense oligonucleotides in a cell. The growth factors used were EGF, insulin growth factor (IGF), transforming growth factor (TGF), […] (VEGF), hepatocyte growth factor (HGF), platelet growth factor (PGF) and fibroblasts growth factor (FGF). To test antisense activity, cells were treated for 4 hours with a growth factor or vehicle alone, and then treated with compound no. 25690 (complementary to Drosha), compound no. 395254 (complementary to Malat1), or vehicle alone. RNA was isolated from the cells and Drosha or Malat1 RNA levels were measured by RT-qPCR. Human primer probe set 13816 (forward sequence […], designated herein as SEQ ID NO: 3; reverse sequence […], designated herein as SEQ ID NO: 4; probe sequence […], designated herein as SEQ ID NO: 5) was used to measure Drosha mRNA levels and primer probe set RTS2736 (forward sequence […], designated herein as SEQ ID NO: 6; reverse sequence […], designated herein as SEQ ID NO: 7; probe sequence TGCCACATCGCCACCCCGT, designated herein as SEQ ID NO: 8) was used to measure Malat1 RNA levels. Drosha and Malat1 RNA levels were normalized to total RNA content, as measured by RIBOGREEN®. Results are presented in the tables below as normalized RNA levels, relative to untreated control cells.
A431 cells were treated with EGF or TGF at 200 ng/mL in the presence or absence of 1 μM of the EGFR tyrosine kinase inhibitor PD174265. The cells were then treated with compound no. 25690 or compound no. 395254 as in Example 8. Total RNA was isolated and analyzed by RT-qPCR, as in Example 8.
Following siRNA treatment, cells were treated with compound no. 25690 or compound no. 395254 in the presence or absence of EGF. 16 hours after treatment with a PS-ASO with or without EGF, cells were harvested, and RNA levels were analyzed via RT-qPCR as in Example 8.

Sequence: AGGAAGGAAGCTGGCGATCT (sugars from the 5' end e5 d10 e5, all phosphorothioate, methylation of C not given here) [compound 25690]
- Drosha mRNA (% Control) (19.5 nM, Control): 100.0 % Control
- Drosha mRNA (% Control) (19.5 nM, EGF): 100.0 % Control
- Drosha mRNA (% Control) (19.5 nM, TGF): 100.0 % Control
- Drosha mRNA (% Control) (39 nM, Control): 104.3 % Control
- Drosha mRNA (% Control) (39 nM, EGF): 98.0 % Control
- Drosha mRNA (% Control) (39 nM, TGF): 95.1 % Control
- Drosha mRNA (% Control) (78 nM, Control): 100.3 % Control
- Drosha mRNA (% Control) (78 nM, EGF): 98.0 % Control
- Drosha mRNA (% Control) (78 nM, TGF): 80.2 % Control
- Drosha mRNA (% Control) (97.7 nM, Control): 100.0 % Control
- Drosha mRNA (% Control) (97.7 nM, Control Luciferase siRNA): 100.0 % Control
- Drosha mRNA (% Control) (97.7 nM, Control Luciferase siRNA, Table 26): 100.0 % Control
- Drosha mRNA (% Control) (97.7 nM, Control luciferase + EGF): 100.0 % Control
- Drosha mRNA (% Control) (97.7 nM, Control, Table 20): 100.0 % Control
- Drosha mRNA (% Control) (97.7 nM, EGF): 100.0 % Control
- Drosha mRNA (% Control) (97.7 nM, EGF+PD174265): 100.0 % Control
- Drosha mRNA (% Control) (97.7 nM, EGFR siRNA-1): 100.0 % Control
- Drosha mRNA (% Control) (97.7 nM, EGFR siRNA-2): 100.0 % Control
- Drosha mRNA (% Control) (97.7 nM, EGFR siRNA-2 + EGF): 100.0 % Control
- Drosha mRNA (% Control) (97.7 nM, EGFR siRNA-2, Table 26): 100.0 % Control
- Drosha mRNA (% Control) (97.7 nM, TGF): 100.0 % Control
- Drosha mRNA (% Control) (97.7 nM, TGF+PD174265): 100.0 % Control
- Drosha mRNA (% Control) (156.25 nM, Control): 103.8 % Control
- Drosha mRNA (% Control) (156.25 nM, EGF): 70.7 % Control
- Drosha mRNA (% Control) (156.25 nM, TGF): 64.6 % Control
- Drosha mRNA (% Control) (195 nM, Control): 110.0 % Control
- Drosha mRNA (% Control) (195 nM, Control Luciferase siRNA): 81.4 % Control
- Drosha mRNA (% Control) (195 nM, Control Luciferase siRNA, Table 26): 99.2 % Control
- Drosha mRNA (% Control) (195 nM, Control luciferase + EGF): 110.2 % Control
- Drosha mRNA (% Control) (195 nM, Control, Table 20): 110.0 % Control
- Drosha mRNA (% Control) (195 nM, EGF): 98.2 % Control
- Drosha mRNA (% Control) (195 nM, EGF+PD174265): 102.4 % Control
- Drosha mRNA (% Control) (195 nM, EGFR siRNA-1): 103.0 % Control
- Drosha mRNA (% Control) (195 nM, EGFR siRNA-2): 88.0 % Control
- Drosha mRNA (% Control) (195 nM, EGFR siRNA-2 + EGF): 107.2 % Control
- Drosha mRNA (% Control) (195 nM, EGFR siRNA-2, Table 26): 105.2 % Control
- Drosha mRNA (% Control) (195 nM, TGF): 95.2 % Control
- Drosha mRNA (% Control) (195 nM, TGF+PD174265): 108.0 % Control
- Drosha mRNA (% Control) (312.5 nM, Control): 92.7 % Control
- Drosha mRNA (% Control) (312.5 nM, EGF): 72.8 % Control
- Drosha mRNA (% Control) (312.5 nM, TGF): 61.1 % Control
- Drosha mRNA (% Control) (391 nM, Control): 99.7 % Control
- Drosha mRNA (% Control) (391 nM, Control Luciferase siRNA): 67.0 % Control
- Drosha mRNA (% Control) (391 nM, Control Luciferase siRNA, Table 26): 100.0 % Control
- Drosha mRNA (% Control) (391 nM, Control luciferase + EGF): 100.0 % Control
- Drosha mRNA (% Control) (391 nM, Control, Table 20): 99.3 % Control
- Drosha mRNA (% Control) (391 nM, EGF): 89.4 % Control
- Drosha mRNA (% Control) (391 nM, EGF+PD174265): 103.3 % Control
- Drosha mRNA (% Control) (391 nM, EGFR siRNA-1): 78.9 % Control
- Drosha mRNA (% Control) (391 nM, EGFR siRNA-2): 83.1 % Control
- Drosha mRNA (% Control) (391 nM, EGFR siRNA-2, Table 26): 100.0 % Control
- Drosha mRNA (% Control) (391 nM, TGF): 85.2 % Control
- Drosha mRNA (% Control) (391 nM, TGF+PD174265): 91.2 % Control
- Drosha mRNA (% Control) (625 nM, Control): 90.9 % Control
- Drosha mRNA (% Control) (625 nM, EGF): 57.2 % Control
- Drosha mRNA (% Control) (625 nM, TGF): 50.8 % Control
- Drosha mRNA (% Control) (781 nM, Control): 88.4 % Control
- Drosha mRNA (% Control) (781 nM, Control Luciferase siRNA): 56.6 % Control
- Drosha mRNA (% Control) (781 nM, Control Luciferase siRNA, Table 26): 77.5 % Control
- Drosha mRNA (% Control) (781 nM, Control luciferase + EGF): 60.8 % Control
- Drosha mRNA (% Control) (781 nM, Control, Table 20): 87.2 % Control
- Drosha mRNA (% Control) (781 nM, EGF): 81.4 % Control
- Drosha mRNA (% Control) (781 nM, EGF+PD174265): 83.6 % Control
- Drosha mRNA (% Control) (781 nM, EGFR siRNA-1): 62.3 % Control
- Drosha mRNA (% Control) (781 nM, EGFR siRNA-2): 64.8 % Control
- Drosha mRNA (% Control) (781 nM, EGFR siRNA-2 + EGF): 98.4 % Control
- Drosha mRNA (% Control) (781 nM, EGFR siRNA-2, Table 26): 89.8 % Control
- Drosha mRNA (% Control) (781 nM, TGF): 67.2 % Control
- Drosha mRNA (% Control) (781 nM, TGF+PD174265): 87.2 % Control
- Drosha mRNA (% Control) (1250 nM, Control): 75.7 % Control
- Drosha mRNA (% Control) (1250 nM, EGF): 52.8 % Control
- Drosha mRNA (% Control) (1250 nM, TGF): 43.4 % Control
- Drosha mRNA (% Control) (1563 nM, Control): 83.2 % Control
- Drosha mRNA (% Control) (1563 nM, Control Luciferase siRNA): 49.2 % Control
- Drosha mRNA (% Control) (1563 nM, Control Luciferase siRNA, Table 26): 70.2 % Control
- Drosha mRNA (% Control) (1563 nM, Control luciferase + EGF): 57.6 % Control
- Drosha mRNA (% Control) (1563 nM, Control, Table 20): 76.3 % Control
- Drosha mRNA (% Control) (1563 nM, EGF): 74.7 % Control
- Drosha mRNA (% Control) (1563 nM, EGF+PD174265): 68.9 % Control
- Drosha mRNA (% Control) (1563 nM, EGFR siRNA-1): 56.0 % Control
- Drosha mRNA (% Control) (1563 nM, EGFR siRNA-2): 61.4 % Control
- Drosha mRNA (% Control) (1563 nM, EGFR siRNA-2 + EGF): 79.4 % Control
- Drosha mRNA (% Control) (1563 nM, EGFR siRNA-2, Table 26): 80.3 % Control
- Drosha mRNA (% Control) (1563 nM, TGF): 65.9 % Control
- Drosha mRNA (% Control) (1563 nM, TGF+PD174265): 78.7 % Control
- Drosha mRNA (% Control) (2500 nM, Control): 63.6 % Control
- Drosha mRNA (% Control) (2500 nM, EGF): 42.8 % Control
- Drosha mRNA (% Control) (2500 nM, TGF): 40.1 % Control
- Drosha mRNA (% Control) (3125 nM, Control): 66.6 % Control
- Drosha mRNA (% Control) (3125 nM, Control Luciferase siRNA): 40.7 % Control
- Drosha mRNA (% Control) (3125 nM, Control Luciferase siRNA, Table 26): 61.6 % Control
- Drosha mRNA (% Control) (3125 nM, Control luciferase + EGF): 40.8 % Control
- Drosha mRNA (% Control) (3125 nM, Control, Table 20): 67.2 % Control
- Drosha mRNA (% Control) (3125 nM, EGF): 55.9 % Control
- Drosha mRNA (% Control) (3125 nM, EGF+PD174265): 62.7 % Control
- Drosha mRNA (% Control) (3125 nM, EGFR siRNA-1): 51.4 % Control
- Drosha mRNA (% Control) (3125 nM, EGFR siRNA-2): 54.6 % Control
- Drosha mRNA (% Control) (3125 nM, EGFR siRNA-2 + EGF): 75.4 % Control
- Drosha mRNA (% Control) (3125 nM, EGFR siRNA-2, Table 26): 70.6 % Control
- Drosha mRNA (% Control) (3125 nM, TGF): 47.2 % Control
- Drosha mRNA (% Control) (3125 nM, TGF+PD174265): 64.2 % Control
- Drosha mRNA (% Control) (5000 nM, Control): 47.6 % Control
- Drosha mRNA (% Control) (5000 nM, EGF): 33.0 % Control
- Drosha mRNA (% Control) (5000 nM, TGF): 31.9 % Control
